In patent EP4603105A1, “PHARMACEUTICAL COMPOSITION CONTAINING CYCLIC COMPOUND HAVING SELECTIVE KRAS INHIBITORY EFFECT AGAINST HRAS AND NRAS” (CHUGAI SEIYAKU KABUSHIKI KAISHA, priority 2022, dated 2024):
Where a SMILES comes first, the peptide text is derived from it. Bridges are numbered along the chain shown (N, C = ends). [ ]: non-standard residue; d: D form. The star is where a group is joined. hPhe(3-Cl-4-CF3) = N[C@@H](CCc1ccc(C(F)(F)F)c(Cl)c1)C(=O)O; NPrPhe(4-CF3) = CCCN[C@@H](Cc1ccc(C(F)(F)F)cc1)C(=O)O; NMeAbu(4,4,4-F3) = CN[C@@H](CC(F)(F)F)C(=O)O; NMePhe(4-Me) = CN[C@@H](Cc1ccc(C)cc1)C(=O)O; NMeGly(cPent) = CN[C@H](C(=O)O)C1CCCC1; Pro(4,4-F2) = O=C(O)[C@@H]1CC(F)(F)CN1; Hyp = O=C(O)[C@@H]1C[C@@H](O)CN1; NMeF = CN[C@@H](Cc1ccccc1)C(=O)O; NMeD = CN[C@@H](CC(=O)O)C(=O)O; NMeL = CN[C@@H](CC(C)C)C(=O)O; Morpholide = C1CN(*)CCO1; NMeA = CN[C@@H](C)C(=O)O; Ac5c = NC1(C(=O)O)CCCC1; Aze = O=C(O)[C@@H]1CCN1; Ac4c = NC1(C(=O)O)CCC1; NPrGly = CCCNCC(=O)O; NEtG = CCNCC(=O)O; Sar = CNCC(=O)O

Experiments:
[1] = molecular target: GDP-bound NRAS wild-type protein (Homo sapiens, UniProt P01111); assay: Binding to NRAS by surface plasmon resonance (SPR), KD and KD ratio to KRAS
Chain of GDP-bound NRAS wild-type protein (P01111 whole entry): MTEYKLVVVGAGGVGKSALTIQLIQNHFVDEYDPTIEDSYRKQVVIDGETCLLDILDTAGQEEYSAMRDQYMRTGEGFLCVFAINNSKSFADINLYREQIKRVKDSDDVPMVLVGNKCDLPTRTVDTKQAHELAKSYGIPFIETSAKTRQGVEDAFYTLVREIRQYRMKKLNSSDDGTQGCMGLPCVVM
Summary of the method: (§1)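 Each cycle, GDP-bound biotin-Avi RAS was captured (~100–300 RU), compound concentrations were injected low to high for 75 s each at 100 µL/min, then the chip was regenerated. Buffer: HBS pH 7.4, 10 mM MgCl2, 10 µM GDP, 1 mM DTT, 4% DMSO; 30°C. KD from a 1:1 binding model.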

[2] = tested on: human lung cancer strain NCI-H441; assay type: cell-based
Summary of the method: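 Signal came from […] measured per well once the reagent was added. Beforehand, cells were cultured at 37°C and 5% carbon dioxide on a compound series serially diluted in dimethyl sulfoxide.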

HRAS wild-type protein = HRAS wild-type protein (Homo sapiens, UniProt P01112); assay: Binding to HRAS by surface plasmon resonance (SPR), KD and KD ratio to KRAS
Chain of HRAS wild-type protein (P01112 whole entry): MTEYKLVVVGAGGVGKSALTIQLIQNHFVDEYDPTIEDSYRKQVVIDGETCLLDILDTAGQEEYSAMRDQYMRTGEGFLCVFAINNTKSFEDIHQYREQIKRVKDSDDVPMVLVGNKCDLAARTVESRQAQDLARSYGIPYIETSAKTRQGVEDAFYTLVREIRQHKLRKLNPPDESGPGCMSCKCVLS
Summary of the method: as §1

[3] = ratio of KD for GDP-bound NRAS wild-type protein to KD for KRAS
[4] = ratio of KD for HRAS wild-type protein to KD for KRAS
[5] = ratio of the KD value with respect to GDP-bound NRAS wild-type protein to the KD value with respect to KRAS
[6] = ratio of the KD value with respect to HRAS wild-type protein to the KD value with respect to KRAS

IC50 [2] | SMILES | NRAS /KRAS [1, 3] | HRAS /KRAS (HRAS wild-type protein; [4]) | NRAS /KRAS [1, 5] | HRAS /KRAS (HRAS wild-type protein; [6]) | NRAS /KRAS ([1]; ratio of KD value for GDP-bound NRAS wild-type protein to KD value for KRAS (SPR)) | HRAS /KRAS (HRAS wild-type protein; ratio of KD value for HRAS wild-type protein to KD value for KRAS (SPR))
26.9 nM | CCO[C@@H]1C[C@H]2C(=O)NC3(CCC3)C(=O)N(C)[C@@H](C3CCCC3)C(=O)N(C)[C@H](C(=O)N(C)C)CC(=O)N(C)[C@@H](Cc3cccc(F)c3)C(=O)N[C@@H]([C@@H](C)CC)C(=O)N(C)CC(=O)N(C)[C@H]3CCCCCN(C3=O)[C@@H](Cc3ccc(C(F)(F)F)cc3)C(=O)N(C)CC(=O)N[C@@H](CCc3cc(F)c(C(F)(F)F)c(F)c3)C(=O)N2C1 [PP0935] | B (a compound having 3 or more and less than 10 is denoted as B) | B (a compound having 3 or more and less than 10 is denoted as B) |  |  |  | 
1.6 nM | CCC[C@H]1C(=O)N[C@@H]([C@@H](C)CC)C(=O)N(C)CC(=O)N(C)[C@H]2C/C=C\CCN(C2=O)[C@@H](Cc2ccc(C(F)(F)F)cc2)C(=O)N(C)CC(=O)N[C@@H](CCc2ccc(C(F)(F)F)c(OC)c2)C(=O)N2C[C@H](OCC)C[C@H]2C(=O)N(C)C2(CCC2)C(=O)N(C)[C@@H](C2CCCC2)C(=O)N(C)[C@H](C(=O)N(C)C)CC(=O)N1C [PP2312] |  |  | A (a compound having 10 or more and less than 20 is denoted as A) | B (a compound having 3 or more and less than 10 is denoted as B) |  | 
77.1 nM | CCC(CC)[C@H]1C(=O)N(C)[C@H](C(=O)N(C)C)CC(=O)N(C)[C@@H](COC)C(=O)N[C@@H]([C@@H](C)CC)C(=O)N(C)CC(=O)N(C)[C@H]2C/C=C\CCN(C2=O)[C@@H](Cc2ccc(C)cc2)C(=O)N(C)CC(=O)N[C@@H](CCc2ccc(Cl)c(Cl)c2)C(=O)N2C[C@H](OC3CCCC3)C[C@H]2C(=O)N(C)C2(CC(C)(C)C2)C(=O)N1C [PP2818] | A (a compound having 10 or more and less than 20 is denoted as A) | A (a compound having 10 or more and less than 20 is denoted as A) |  |  |  | 
20.1 nM | CC[C@H](C)[C@@H]1NC(=O)[C@H](CC(C)C)N(C)C(=O)C[C@@H](C(=O)N2CCOCC2)N(C)C(=O)[C@H](C2CCCC2)N(C)C(=O)C2(CCCC2)NC(=O)[C@@H]2CCCN2C(=O)[C@H](CCc2ccc(C(F)(F)F)c(Cl)c2)NC(=O)CN(C)C(=O)[C@H](Cc2ccccc2)N(C)C(=O)CN(C)C(=O)CN(C)C1=O [PP0039] ([NMeL]I[Sar][Sar][NMeF][Sar][hPhe(3-Cl-4-CF3)]P[Ac5c][NMeGly(cPent)][NMeD]-Morpholide; lactam N-11) | C (A compound having a KD ratio of 0.1 or more and less than 3 is denoted as C) | C (A compound having a KD ratio of 0.1 or more and less than 3 is denoted as C) |  |  |  | 
2.8 nM | CCCN1C(=O)[C@@H]2CCN2C(=O)[C@H](C)N(C)C(=O)[C@H]([C@@H](C)CC)NC(=O)[C@H](CC(F)(F)F)N(C)C(=O)C[C@@H](C(=O)N2CCOCC2)N(C)C(=O)[C@H](C2CCCC2)N(C)C(=O)C2(CCCC2)NC(=O)[C@@H]2CC(F)(F)CN2C(=O)[C@H](CCc2ccc(C(F)(F)F)c(Cl)c2)NC(=O)CN(C)C(=O)[C@@H]1Cc1ccc(C(F)(F)F)cc1 [PP0203] ([NMeAbu(4,4,4-F3)]I[NMeA][Aze][NPrPhe(4-CF3)][Sar][hPhe(3-Cl-4-CF3)][Pro(4,4-F2)][Ac5c][NMeGly(cPent)][NMeD]-Morpholide; lactam N-11) | C (A compound having a KD ratio of 0.1 or more and less than 3 is denoted as C) | C (A compound having a KD ratio of 0.1 or more and less than 3 is denoted as C) |  |  |  | 
52.9 nM | CC[C@H](C)[C@@H]1NC(=O)[C@H](CC(C)C)N(C)C(=O)C[C@@H](C(=O)N2CCOCC2)N(C)C(=O)[C@H](C2CCCC2)N(C)C(=O)C2(CCCC2)NC(=O)[C@@H]2CCCN2C(=O)[C@H](CCc2ccc(C(F)(F)F)c(Cl)c2)NC(=O)CN(CC)C(=O)[C@H](Cc2ccc(C)cc2)N(C)C(=O)[C@@H]2CCN2C(=O)[C@H](C)N(C)C1=O [PP0004] ([NMeL]I[NMeA][Aze][NMePhe(4-Me)][NEtG][hPhe(3-Cl-4-CF3)]P[Ac5c][NMeGly(cPent)][NMeD]-Morpholide; lactam N-11) | C (A compound having a KD ratio of 0.1 or more and less than 3 is denoted as C) | C (A compound having a KD ratio of 0.1 or more and less than 3 is denoted as C) |  |  |  | 
9.9 nM | CCCN1CC(=O)N(C)[C@@H](Cc2ccc(C)cc2)C(=O)N(C)CC(=O)N[C@@H](CCc2ccc(C(F)(F)F)c(Cl)c2)C(=O)N2CCC[C@H]2C(=O)NC2(CCCC2)C(=O)N(C)[C@@H](C2CCCC2)C(=O)N(C)[C@H](C(=O)N2CCOCC2)CC(=O)N(C)[C@@H](CC(C)C)C(=O)N[C@@H]([C@@H](C)CC)C(=O)N(C)CC1=O [PP0020] ([NMeL]I[Sar][NPrGly][NMePhe(4-Me)][Sar][hPhe(3-Cl-4-CF3)]P[Ac5c][NMeGly(cPent)][NMeD]-Morpholide; lactam N-11) | C (A compound having a KD ratio of 0.1 or more and less than 3 is denoted as C) | C (A compound having a KD ratio of 0.1 or more and less than 3 is denoted as C) |  |  |  | 
62.1 nM | CCO[C@@H]1C[C@H]2C(=O)NC3(CC(C)(C)C3)C(=O)N(C)[C@@H](C(CC)CC)C(=O)N(C)[C@H](C(=O)N3CCCC3)CC(=O)N(C)[C@@H](C)C(=O)N[C@@H]([C@@H](C)CC)C(=O)N(C)CC(=O)N(C)[C@H]3C/C=C\CCN(C3=O)[C@@H](Cc3ccc(C)cc3)C(=O)N(C)CC(=O)N[C@@H](CCc3ccc(C(F)(F)F)c(OC)c3)C(=O)N2C1 [PP2169] |  |  | AA (a compound having 20 or more is denoted as AA) | A (a compound having 10 or more and less than 20 is denoted as A) |  | 
98.2 nM | CCCN1C(=O)CN(C)C(=O)CNC(=O)[C@H]([C@@H](C)CC)NC(=O)[C@H](CC(C)C)N(C)C(=O)C[C@@H](C(=O)N2CCOCC2)NC(=O)[C@H](C2CCCC2)N(C)C(=O)C2(CCC2)NC(=O)[C@@H]2C[C@@H](OCC)CN2C(=O)[C@H](CCc2ccc(C(F)(F)F)c(Cl)c2)NC(=O)CN(C)C(=O)[C@@H]1Cc1ccc(C(F)(F)F)cc1 [PP0330] ([NMeL]IG[Sar][NPrPhe(4-CF3)][Sar][hPhe(3-Cl-4-CF3)][Hyp](Et)[Ac4c][NMeGly(cPent)]D-Morpholide; lactam N-11) | B (a compound having 3 or more and less than 10 is denoted as B) | C (A compound having a KD ratio of 0.1 or more and less than 3 is denoted as C) |  |  |  | 
68.4 nM | CC[C@H](C)[C@@H]1NC(=O)[C@H](CC)N(C)C(=O)C[C@@H](C)N(C)C(=O)[C@H](C2CCCC2)N(C)C(=O)C2(CCCC2)NC(=O)[C@@H]2CCCN2C(=O)[C@H](CCc2cc(F)c(C(F)(F)F)c(F)c2)NC(=O)CN(C)C(=O)[C@H](Cc2ccc(C(F)(F)F)cc2)N2CC/C=C\C[C@@H](C2=O)N(C)C(=O)CN(C)C1=O [PP1101] | B (a compound having 3 or more and less than 10 is denoted as B) | B (a compound having 3 or more and less than 10 is denoted as B) |  |  |  | 
12.4 nM | CCO[C@@H]1C[C@H]2C(=O)NC3(CC(C)(C)C3)C(=O)N(C)[C@@H](C(CC)CC)C(=O)N(C)[C@H](C(=O)N(C)C)CC(=O)N(C)[C@@H](CC(C)C)C(=O)N[C@@H]([C@@H](C)CC)C(=O)N(C)CC(=O)N(C)[C@H]3C/C=C\CCN(C3=O)[C@@H](Cc3ccc(C(F)(F)F)cc3)C(=O)N(C)CC(=O)N[C@@H](CCc3ccc(C(F)(F)F)c(OC)c3)C(=O)N2C1 [PP2161] |  |  | AA (a compound having 20 or more is denoted as AA) | A (a compound having 10 or more and less than 20 is denoted as A) |  | 
2.4 nM | CC[C@H](C)[C@@H]1NC(=O)[C@H](COC)N(C)C(=O)C[C@@H](C(=O)N(C)C)N(C)C(=O)[C@H](C2CCCC2)N(C)C(=O)C2(CC(C)(C)C2)NC(=O)[C@@H]2CC(F)(F)CN2C(=O)[C@H](CCc2cc(F)c(C(F)(F)F)c(F)c2)NC(=O)CN(C)C(=O)[C@H](Cc2ccc(C(F)(F)F)cc2)N2CC/C=C\C[C@@H](C2=O)N(C)C(=O)CN(C)C1=O [PP1717] |  |  |  |  | A (a compound having 10 or more and less than 20 is denoted as A) | A (a compound having 10 or more and less than 20 is denoted as A)
43.7 nM | CC[C@H](C)[C@@H]1NC(=O)[C@H](CC(C)C)N(C)C(=O)C[C@@H](C(=O)N2CCOCC2)N(C)C(=O)[C@H](C2CCCC2)N(C)C(=O)C2(CCC2)NC(=O)[C@@H]2C[C@@H](C(F)(F)F)CN2C(=O)[C@H](CCc2cc(F)c(C(F)(F)F)c(F)c2)NC(=O)CN(C)C(=O)[C@H](Cc2ccc(C(F)(F)F)cc2)N2CCCCC[C@@H](C2=O)N(C)C(=O)CN(C)C1=O [PP0818] | B (a compound having 3 or more and less than 10 is denoted as B) | B (a compound having 3 or more and less than 10 is denoted as B) |  |  |  | 
9.2 nM | CCC[C@H]1C(=O)N[C@@H]([C@@H](C)CC)C(=O)N(C)CC(=O)N(C)[C@H]2C/C=C\CCN(C2=O)[C@@H](Cc2ccc(C(F)(F)F)cc2)C(=O)N(C)CC(=O)N[C@@H](CCc2cc(F)c(C(F)(F)F)c(F)c2)C(=O)N2C[C@H](OCC)C[C@H]2C(=O)NC2(CC(C)(C)C2)C(=O)N(C)[C@@H]([C@@H](C)CC)C(=O)N(C)[C@H](C(=O)N(C)C)CC(=O)N1C [PP1941] |  |  | A (a compound having 10 or more and less than 20 is denoted as A) | A (a compound having 10 or more and less than 20 is denoted as A) |  | 
